Results reported in PMC4887995, “Small molecule dual-inhibitors of TRPV4 and TRPA1 for attenuation of inflammation and pain” (Scientific Reports, 2016).
Entries after “also recorded” stand apart in the source; their conditions may differ.

Experiments:
TRPV4 = TRPV4 (Rattus norvegicus, UniProt Q9ERZ8); settings: for average peak ∆Ca++ concentration: ≈100 cells, vehicle control 1156
Experimental: We assessed TRPV4-inhibitory potency of these synthetic compounds in a Ca^++ imaging assay in neuronal 2a (N2a) permanent tissue culture cells with directed expression of mammalian (rat) TRPV4. […] For first round assessment, all TRPV4-inhibitory compounds were used at 5 μM (Fig. 2A).
(A) Ca^++ imaging screening of all compounds in N2A cells with directed expression of TRPV4 (rat). […] The number on each bar corresponds to average peak ∆Ca^++ concentrations in ≈100 cells. Inset: micrographs of pseudo-colored cells before and after activation with 5nM GSK101, in addition note the corresponding time course of the averaged Ca^++ signal (fura-2 Ca^++ imaging). […] Plot generated from averaged peak ∆Ca^++ concentration of ≥75 cells per data-point.
TRPV4-eGFP from rat was used, previously found to respond to stimulation with GSK101 and hypotonicity in similar manner as native, non-fused TRPV4.

TRPA1 = TRPA1 (Mus musculus, UniProt Q8BLA8)
Experimental: Mean±SEM is shown, ≥100 cells per condition. […] Plot generated from averaged peak ∆Ca^++ concentration of ≥75 cells per data-point.
N2a cells were used for directed expression of TRP ion channels as described previously[13]. […] All other channels were native channels from mouse, eGFP was co-transfected. […] Ca^++ imaging was performed as described previously[13][14][34].
To visualize dose-response relationships, Hill plots were conducted using the Igor Pro software program, which derived the plots based on the following equation:

[1] = tested on: formalin-evoked trigeminal irritant pain (TRPA1 contribution); assay: Trigeminal formalin irritant pain model, Trpv4-/- mice; format: in vivo, mouse; settings: 25 mg/kg i.p.
Experimental: Figure 7 16-8 and 16-19 effectively attenuate formalin-evoked trigeminal irritant pain. (A) Time-course of nocifensive behavior in WT mice following whisker-pad injection of 4% formalin. The mice were pre-injected (i.p., 10 mg/kg; 15 min before formalin) with GSK205, 16-8 or 16-19. Note effective reduction of nocifensive behavior in the late “neural” phase by compounds 16-8, 16-19, not by GSK205. (B) Cumulative response binned into 3 phases: acute phase (0–5 min), interphase (5–15 min), and late “neural” phase (15–45 min). […] (C) As in (A), but also including Trpv4^−/− mice. Compounds were applied i.p. 15 min before formalin challenge, at 10 mg/kg except established TRPA1 blocker, A967079 (25 mg/kg). Previously-established attenuated nocifensive behavior in early and late phase in Trpv4^−/− mice was recapped, which was reduced further by TRPA1 blocker, A967079. (D) As in (B), plus inclusion of Trpv4^−/− mice. Robust effects of TRPA1-blocker, A967079, were mimicked equi-potently by 16-8 and 16-19 for early phase, and by 16-8 for late phase, partially by 16-19 for late phase. (A,C) show averaged behavioral metrics per time-point, bars in (B,D) represent mean ± SEM; for (D) ^*P < 0.05; ^#P < 0.005, one-way ANOVA; for all panels n = 5–8 mice/group. […] We observed significant residual irritant-pain behavior in all phases of the formalin model in Trpv4^−/− mice, consistent with our previous report[13] (Fig. 7C,D). […] A reference TRPA1-inhibitory compound, A967079, was used at 25 mg/kg body weight as a positive control to inhibit TRPA1, based on a previous report. Reduction of pain behavior in Trpv4^−/− mice was striking, more than 50% in the late neural phase. […] We conclude that compound 16-8 also functions as a potent TRPA1-inhibitor in an in-vivo irritant pain model specifically designed to assess the contribution of TRPA1 to trigeminal irritant pain, and at least as potent as an established reference TRPA1-antagonistic compound. Implementation of this model was conducted as described previously. Video-taped nocifensive behavior was assessed by investigators blinded to genotype and treatment.

[2] = tested on: formalin-evoked trigeminal irritant pain; set-up: method as in PMID 25281928; settings: intradermal injection; cited from earlier work
[3] = tested on: formalin-evoked trigeminal irritant pain; assay: Trigeminal formalin irritant pain model, WT mice; format: in vivo, mouse; settings: 10 mg/kg i.p., 15 min before 4% formalin, 15–45 min
Experimental: Figure 7 16-8 and 16-19 effectively attenuate formalin-evoked trigeminal irritant pain. (A) Time-course of nocifensive behavior in WT mice following whisker-pad injection of 4% formalin. The mice were pre-injected (i.p., 10 mg/kg; 15 min before formalin) with GSK205, 16-8 or 16-19. Note effective reduction of nocifensive behavior in the late “neural” phase by compounds 16-8, 16-19, not by GSK205. (B) Cumulative response binned into 3 phases: acute phase (0–5 min), interphase (5–15 min), and late “neural” phase (15–45 min). […] (C) As in (A), but also including Trpv4^−/− mice. Compounds were applied i.p. 15 min before formalin challenge, at 10 mg/kg except established TRPA1 blocker, A967079 (25 mg/kg). Previously-established attenuated nocifensive behavior in early and late phase in Trpv4^−/− mice was recapped, which was reduced further by TRPA1 blocker, A967079. (D) As in (B), plus inclusion of Trpv4^−/− mice. Robust effects of TRPA1-blocker, A967079, were mimicked equi-potently by 16-8 and 16-19 for early phase, and by 16-8 for late phase, partially by 16-19 for late phase. (A,C) show averaged behavioral metrics per time-point, bars in (B,D) represent mean ± SEM; for (D) ^*P < 0.05; ^#P < 0.005, one-way ANOVA; for all panels n = 5–8 mice/group. Implementation of this model was conducted as described previously. Video-taped nocifensive behavior was assessed by investigators blinded to genotype and treatment.

Sequence of TRPV4 (Q9ERZ8 whole entry): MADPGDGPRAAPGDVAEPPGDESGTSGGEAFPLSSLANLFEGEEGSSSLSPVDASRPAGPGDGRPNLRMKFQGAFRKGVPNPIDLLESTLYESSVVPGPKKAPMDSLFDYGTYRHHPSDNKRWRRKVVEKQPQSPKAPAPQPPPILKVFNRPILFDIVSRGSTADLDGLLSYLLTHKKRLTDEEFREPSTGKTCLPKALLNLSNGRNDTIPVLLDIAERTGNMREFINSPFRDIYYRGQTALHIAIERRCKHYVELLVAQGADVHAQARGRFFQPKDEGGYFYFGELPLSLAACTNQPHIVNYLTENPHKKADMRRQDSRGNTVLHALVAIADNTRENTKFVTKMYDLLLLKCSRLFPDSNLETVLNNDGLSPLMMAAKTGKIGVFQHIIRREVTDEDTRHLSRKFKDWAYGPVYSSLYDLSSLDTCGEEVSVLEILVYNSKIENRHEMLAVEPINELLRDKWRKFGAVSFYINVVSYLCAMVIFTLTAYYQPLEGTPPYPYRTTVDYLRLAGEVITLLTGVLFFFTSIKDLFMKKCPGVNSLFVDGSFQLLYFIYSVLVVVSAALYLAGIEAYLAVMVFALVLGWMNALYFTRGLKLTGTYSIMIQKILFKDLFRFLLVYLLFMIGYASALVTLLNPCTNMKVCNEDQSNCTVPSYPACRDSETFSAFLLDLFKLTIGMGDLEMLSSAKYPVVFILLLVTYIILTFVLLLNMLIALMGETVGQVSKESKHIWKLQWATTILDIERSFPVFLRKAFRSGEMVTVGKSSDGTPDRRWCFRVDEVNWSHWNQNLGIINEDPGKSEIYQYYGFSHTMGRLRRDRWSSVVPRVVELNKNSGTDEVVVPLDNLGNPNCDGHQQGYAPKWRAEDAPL
Sequence of TRPA1 (Q8BLA8 whole entry): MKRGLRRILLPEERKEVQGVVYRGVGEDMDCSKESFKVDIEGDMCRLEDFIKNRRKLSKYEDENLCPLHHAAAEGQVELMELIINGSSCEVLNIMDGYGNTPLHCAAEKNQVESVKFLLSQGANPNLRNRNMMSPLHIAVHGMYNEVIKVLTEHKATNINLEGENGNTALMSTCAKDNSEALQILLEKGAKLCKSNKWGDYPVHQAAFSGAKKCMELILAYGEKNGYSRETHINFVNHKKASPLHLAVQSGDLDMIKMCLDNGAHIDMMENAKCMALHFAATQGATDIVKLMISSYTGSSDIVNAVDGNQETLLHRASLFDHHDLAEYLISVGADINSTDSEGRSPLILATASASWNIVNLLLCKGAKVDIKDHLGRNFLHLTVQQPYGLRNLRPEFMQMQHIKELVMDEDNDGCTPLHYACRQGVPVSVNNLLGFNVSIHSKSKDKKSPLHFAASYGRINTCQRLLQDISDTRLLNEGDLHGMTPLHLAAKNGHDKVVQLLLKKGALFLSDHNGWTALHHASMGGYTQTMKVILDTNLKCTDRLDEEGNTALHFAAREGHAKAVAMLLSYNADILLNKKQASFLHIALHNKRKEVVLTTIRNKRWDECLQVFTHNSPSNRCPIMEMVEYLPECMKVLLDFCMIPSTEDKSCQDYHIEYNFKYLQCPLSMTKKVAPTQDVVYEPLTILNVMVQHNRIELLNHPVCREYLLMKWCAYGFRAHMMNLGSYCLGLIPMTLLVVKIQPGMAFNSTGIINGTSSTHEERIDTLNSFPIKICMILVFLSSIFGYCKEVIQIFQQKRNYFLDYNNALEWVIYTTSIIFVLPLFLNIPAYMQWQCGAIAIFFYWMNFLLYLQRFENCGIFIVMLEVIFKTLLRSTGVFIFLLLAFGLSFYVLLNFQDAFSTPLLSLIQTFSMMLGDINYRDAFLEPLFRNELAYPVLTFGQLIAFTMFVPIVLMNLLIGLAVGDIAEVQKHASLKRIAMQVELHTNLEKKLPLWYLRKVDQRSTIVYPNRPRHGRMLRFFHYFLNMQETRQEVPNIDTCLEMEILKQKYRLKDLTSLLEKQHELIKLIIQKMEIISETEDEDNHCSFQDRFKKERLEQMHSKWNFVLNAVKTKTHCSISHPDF

Structure (SMILES): CN(CCc1ccc(Nc2nc(-c3ccncc3)cs2)cc1)Cc1ccccc1 [16-13]
- average peak ∆Ca++ concentration (TRPV4; 5 μM inhibitor, GSK101 5 nM): 52 nM

Structure (SMILES): CN(CCc1ccc(Nc2nc(-c3cccnc3)cs2)cc1)c1ccccc1 [16-16]
- average peak ∆Ca++ concentration (TRPV4; 5 μM inhibitor, GSK101 5 nM): 263 nM

Structure (SMILES): CN(CCc1ccc(Nc2ncc(-c3cccnc3)s2)cc1)Cc1ccccc1 [16-43C]
- inhibition of TRPV4-mediated Ca++ influx (TRPV4; 5 μM inhibitor, GSK101 5 nM): did not inhibit Ca^++ influx
- average peak ∆Ca++ concentration (TRPV4; 5 μM inhibitor, GSK101 5 nM): 1210 nM

Structure (SMILES): CN(CCc1ccc(Nc2nc(-c3ccccn3)cs2)cc1)Cc1ccccc1 [16-14]
- average peak ∆Ca++ concentration (TRPV4; 5 μM inhibitor, GSK101 5 nM): 558 nM

Structure (SMILES): CCN(CCc1ccc(Nc2nc(-c3cccnc3)cs2)cc1)Cc1ccccc1 [16-18]
- average peak ∆Ca++ concentration (TRPV4; 5 μM inhibitor, GSK101 5 nM): 14 nM
- increased potency over GSK205 (TRPV4; from TRPV4 IC50 values): ~5 fold
- IC50 (TRPA1): > 25 µM
- activity vs TRPA1 (TRPA1; 100 μM mustard oil, N2a cells): no significant activity

Structure (SMILES): CN(CCc1ccc(Nc2nc(-c3cccnc3)cs2)cc1)CCc1cccnc1 [16-12]
- average peak ∆Ca++ concentration (TRPV4; 5 μM inhibitor, GSK101 5 nM): 39.5 nM

Structure (SMILES): CCC(=N\O)/C(C)=C/c1ccc(F)cc1 [A967079, reference compound]
- reduction of pain behavior, late neural phase [1]: more than 50%

Structure (SMILES): CN(CCc1ccc(Nc2nc(-c3cccnc3)cs2)cc1)Cc1ccccc1 [GSK205, reference compound]
- IC50 (TRPV4): 4.19 ± 0.71 µM
- average peak ∆Ca++ concentration (TRPV4; 5 μM inhibitor, GSK101 5 nM): 650 nM
- attenuation of trigeminal formalin-evoked pain behavior [2]: effective attenuation; also recorded: effective previously in a dose-dependent manner
- IC50 (TRPA1): 5.56 µM
- pain behavior, delayed (late neural) phase [3]: no significant effect
